Test results reported in US7632933B2, “Corticotropin releasing factor 2 receptor agonists” (priority 2002, dated 2009).
Read-outs that look alike come from different tables or passages of the source. Ends that are not written are not given here. Peptide text beside a SMILES is read from it.

How the values were obtained:
CRF1R = target: T1, CRF1R (Homo sapiens, UniProt P34998); experiment: CRF1R agonist activity (EC50 and Emax), called comparative CRF binding; format: cell-based; details: CRF1R
T1 sequence (P34998 24-415): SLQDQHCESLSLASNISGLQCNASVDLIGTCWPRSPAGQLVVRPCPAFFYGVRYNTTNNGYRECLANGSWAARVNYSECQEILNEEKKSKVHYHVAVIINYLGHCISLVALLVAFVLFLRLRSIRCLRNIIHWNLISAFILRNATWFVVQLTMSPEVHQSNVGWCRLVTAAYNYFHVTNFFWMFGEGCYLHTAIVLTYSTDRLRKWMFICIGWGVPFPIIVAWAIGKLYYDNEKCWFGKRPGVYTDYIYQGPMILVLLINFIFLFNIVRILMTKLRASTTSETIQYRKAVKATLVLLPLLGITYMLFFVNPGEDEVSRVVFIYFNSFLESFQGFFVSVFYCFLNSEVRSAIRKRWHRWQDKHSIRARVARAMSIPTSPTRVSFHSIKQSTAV
Procedure, shortened: (§1)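 CRE-reporter or direct cAMP, cells w/ single CRFR subtype (recombinant or CRF1R-disabled), peptide vs vehicle; background from other CRFR type subtracted.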

CRF2R = target: T2, CRF2R (Homo sapiens, UniProt Q13324); experiment: CRF2R agonist activity (EC50 and Emax), called comparative CRF binding; format: cell-based; details: CRF2R
T2 sequence (Q13324 1-411): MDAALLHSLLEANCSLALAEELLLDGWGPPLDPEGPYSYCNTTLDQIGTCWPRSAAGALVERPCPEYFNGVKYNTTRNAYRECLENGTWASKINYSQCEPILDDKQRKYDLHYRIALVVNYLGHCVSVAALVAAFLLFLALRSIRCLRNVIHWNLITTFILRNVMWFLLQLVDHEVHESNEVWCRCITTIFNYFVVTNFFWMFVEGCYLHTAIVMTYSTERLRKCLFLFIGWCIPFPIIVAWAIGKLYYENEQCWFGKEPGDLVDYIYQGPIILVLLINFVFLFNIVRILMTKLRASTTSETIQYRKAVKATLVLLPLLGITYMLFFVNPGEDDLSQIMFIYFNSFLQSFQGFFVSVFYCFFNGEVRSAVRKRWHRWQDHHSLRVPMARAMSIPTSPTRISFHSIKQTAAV
Procedure, shortened: as §1

Row | Molecule | EC50 (CRF1R; read-out: CRF1R EC50) | EC50 (CRF2R; read-out: CRF2R EC50) | EC50 (CRF1R; CRF1R EC50 (nM)) | EC50 (CRF2R; CRF2R EC50 (nM))
1 | CC[C@H](C)[C@H](NC(=O)[C@H](CC(=O)O)NC(=O)[C@H](CC(C)C)NC(=O)[C@H](CC(C)C)NC(=O)[C@H](CCCCN)NC(=O)[C@H](CCCNC(=N)N)NC(=O)[C@H](CC(N)=O)NC(=O)[C@H](CO)NC(=O)[C@H](Cc1c[nH]cn1)NC(=O)[C@H](C)NC(=O)[C@H](CCC(N)=O)NC(=O)[C@H](CCC(N)=O)NC(=O)[C@H](C)NC(=O)[C@H](CC(C)C)NC(=O)[C@H](CCC(N)=O)NC(=O)[C@H](CC(=O)O)NC(=O)[C@H](C)NC(=O)[C@H](CCCCN)NC(=O)[C@@H](NC(=O)[C@H](CCSC)NC(=O)[C@H](CCC(=O)O)NC(=O)[C@H](CC(C)C)NC(=O)[C@@H](NC(=O)[C@H](CCC(=O)O)NC(=O)[C@H](CCCNC(=N)N)NC(=O)[C@H](CC(C)C)NC(=O)[C@H](CC(C)C)NC(=O)[C@H](Cc1c[nH]cn1)NC(=O)[C@H](Cc1ccccc1)NC(=O)[C@@H]1CCCN1C(=O)[C@H](CC(C)C)NC(=O)[C@H](CC(=O)O)NC(=O)[C@H](CC(C)C)NC(=O)[C@H](CO)NC(=O)[C@@H](NC(=O)[C@@H]1CCCN1C(=O)[C@@H]1CCCN1C(=O)[C@H](CCC(=O)O)NC(=O)[C@H](CCC(N)=O)NC(=O)[C@@H](N)CO)[C@@H](C)CC)C(C)C)[C@@H](C)O)C(=O)N[C@@H](C)C(N)=O [compound 104] | ≥ 100 nM | ≥ 100 nM | – | –
2 | NDDPPISIDLPLQLLRNMIEMARIENEREQAGLNAKYLAEV-NH2 [compound 270] | ≥ 1000 nM | ≥ 100 nM | – | –
3 | SQEPPISLDLTIHLLREVLEMTKADQLAQQAHSNRKLLDIA-NH2 [compound 87] | ≥ 100 nM | ≥ 100 nM | – | –
4 | CC[C@H](C)[C@H](N)C(=O)N[C@H](C(=O)N[C@@H](CC(C)C)C(=O)N[C@@H](CO)C(=O)N[C@@H](CC(C)C)C(=O)N[C@@H](CC(=O)O)C(=O)N[C@H](C(=O)N1CCC[C@H]1C(=O)N[C@H](C(=O)NCC(=O)N[C@@H](CC(C)C)C(=O)N[C@@H](CC(C)C)C(=O)N[C@@H](CCC(N)=O)C(=O)N[C@H](C(=O)N[C@@H](CC(C)C)C(=O)N[C@@H](CC(C)C)C(=O)N[C@@H](CCC(=O)O)C(=O)N[C@@H](CCC(N)=O)C(=O)N[C@@H](C)C(=O)N[C@@H](C)C(=O)N[C@@H](C)C(=O)N[C@@H](C)C(=O)N[C@@H](CCCNC(=N)N)C(=O)N[C@@H](CCC(=O)O)C(=O)N[C@@H](CCC(N)=O)C(=O)N[C@@H](C)C(=O)N[C@H](C(=O)N[C@H](C(=O)N[C@@H](CC(N)=O)C(=O)N[C@@H](C)C(=O)N[C@@H](CCCNC(=N)N)C(=O)N[C@H](C(=O)N[C@@H](CC(C)C)C(=O)N[C@@H](C)C(=O)N[C@@H](CCCNC(=N)N)C(=O)N[C@H](C(N)=O)C(C)C)[C@@H](C)CC)[C@@H](C)O)[C@@H](C)O)[C@@H](C)CC)[C@@H](C)CC)C(C)C)C(C)C [compound 134] (H-IVLSLDVPIGLLQILLEQAAAAREQATTNARILARV-NH2) | – | – | > 100 nM | > 100 nM
5 | SEEPPISLDLTFHLLREVLEMARAEQLAQQAHTNARILARV-NH2 [compound 161] | > 100 nM | > 100 nM | – | –
